Test results: PubChem BioAssay (NCI)
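Values below derive from 48-hour exposures of cells grown in 96-well plates, with endpoints linearly interpolated between the two concentrations bracketing the appropriate inhibition level. TGI marks complete inhibition of growth.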

Assays:
Experiment in all cases: NCI anticancer screen, dose series, 48 h
XF 498 CNS = tested on: XF 498 CNS
KM20L2 colon = tested on: KM20L2 colon
HOP-18 NSCLC = tested on: HOP-18 NSCLC
DMS 273 small cell lung = tested on: DMS 273 small cell lung
SNB-78 CNS = tested on: SNB-78 CNS
DLD-1 colon = tested on: DLD-1 colon
RXF-631 renal = tested on: RXF-631 renal
M19-MEL melanoma = tested on: M19-MEL melanoma

Compound	TGI (XF 498 CNS) [µM]	TGI (KM20L2 colon) [µM]	TGI (HOP-18 NSCLC) [µM]	TGI (DMS 273 small cell lung) [µM]	TGI (SNB-78 CNS) [µM]	TGI (DLD-1 colon) [µM]	TGI (RXF-631 renal) [µM]	TGI (M19-MEL melanoma) [µM]
COc1cccc(NC(=O)CC(=O)NNCC(=O)Nc2nnc(-c3ccc(N(CCC#N)S(=O)(=O)c4ccccc4)cc3)s2)c1	> 100	> 100	> 100	> 100	> 100	> 100	> 100	> 100
COC1=CC(=O)c2c(O)c3c(c(O)c2C1=O)C[C@](C)(O)C[C@@H]3O	9.5	> 100	–	8.37	16.3	17.2	11.2	0.73
CN1Cc2c(nc(-c3ccc(Br)cc3)c[n+]2[O-])N(C)C1	> 100	> 100	> 100	> 100	> 100	> 100	–	–
C=CCC1(CC)C(=O)NC(=O)NC1=O	–	> 100	–	> 100	> 100	–	–	> 100
